Assay results published in patent US11535643B2, “Macrolides with modified desosamine sugars and uses thereof” (President and Fellows of Harvard College, priority 2015, dated 2022).
Values after ≈ are worked out from the molar mass of the structure shown. Read-outs that look alike come from different tables or passages of the source.

How the values were obtained:
Format in all cases: cell-based
[1] = test system: E. coli; assay: Broth dilution MIC determination (CLSI) against E. coli strains; settings: for MIC: Escherichia coli
Procedure, shortened: (§1)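 Strains, including multidrug-resistant and macrolide-resistant ones, were exposed to macrolides in broth dilution per CLSI standards, and the lowest inhibiting concentration was recorded as MIC. Azithromycin and solithromycin were run alongside.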

[2] = test system: S. pneumoniae; assay: Broth dilution MIC determination (CLSI) against S. pneumoniae strains; settings: for MIC: Streptococcus pneumoniae
Procedure, shortened: as §1

[3] = test system: H. influenzae; assay: Broth dilution MIC determination (CLSI) against H. influenzae strains; settings: for MIC: Haemophilus influenzae
Procedure, shortened: as §1

[4] = test system: S. aureus; assay: Broth dilution MIC determination (CLSI) against S. aureus strains; settings: for MIC: Staphylococcus aureus
Procedure, shortened: as §1

[5] = test system: P. aeruginosa; assay: Broth dilution MIC determination (CLSI) against P. aeruginosa strains; settings: for MIC: Pseudomonas aeruginosa
Procedure, shortened: as §1

[6] = test system: S. pyogenes; assay: Broth dilution MIC determination (CLSI) against S. pyogenes strains; settings: for MIC: Streptococcus pyogenes
Procedure, shortened: as §1

[7] = test system: A. baumannii; assay: Broth dilution MIC determination (CLSI) against A. baumannii strains; settings: for MIC: Acinetobacter baumannii
Procedure, shortened: as §1

[8] = test system: K. pneumoniae; assay: Broth dilution MIC determination (CLSI) against K. pneumoniae strains; settings: for MIC: Klebsiella pneumoniae
Procedure, shortened: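 CLSI broth-dilution MICs across a panel including multidrug- and macrolide-resistant strains, with azithromycin and solithromycin as control compounds.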

[9] = test system: E. faecalis; assay: Broth dilution MIC determination (CLSI) against E. faecalis strains; settings: for MIC: Enterococcus faecalis
Procedure, shortened: as §1

[10] = ATCC25922, ATCC25922, read-out: MIC E. coli ATCC25922
[11] = read-out: MIC E. coli CTX-M-14, CTX-M-14
[12] = read-out: MIC E. coli NDM-1, NDM-1
[13] = read-out: MIC E. coli TEM-1, TEM-1
[14] = ATCC49619, ATCC49619, read-out: MIC S. pneumoniae ATCC49619
[15] = erm B + tet(M, O) genotype, read-out: MIC S. pneumoniae erm B + tet(M, O) genotype
[16] = ATCC49247, ATCC49247, read-out: MIC H. influenzae ATCC49247
[17] = MRSA / USA100, MRSA: USA100, read-out: MIC S. aureus MRSA: USA100
[18] = MRSA / USA300, MRSA: USA300, read-out: MIC S. aureus MRSA: USA300
[19] = USA600, USA600, GISA, read-out: MIC S. aureus USA600, GISA
[20] = read-out: MIC S. aureus erm A genotype
[21] = ATCC27853, read-out: MIC P. aeruginosa ATCC27853
[22] = read-out: MIC P. aeruginosa HPA101-1477
[23] = ATCC19615, ATCC19615, read-out: MIC S. pyogenes ATCC19615
[24] = macrolide-resistant, read-out: MIC S. pyogenes macrolide-resistant
[25] = ATCC19606, ATCC19606, read-out: MIC A. baumannii ATCC19606
[26] = IMP-4, read-out: MIC A. baumannii IMP-4
[27] = chromosomal class C, read-out: MIC A. baumannii chromosomal class C
[28] = imipenem-resistant, read-out: MIC A. baumannii imipenem-resistant
[29] = ATCC10031, ATCC10031, read-out: MIC K. pneumoniae ATCC10031
[30] = KPC-2, read-out: MIC K. pneumoniae KPC-2
[31] = SHV-12, read-out: MIC K. pneumoniae SHV-12
[32] = Vancomycin-resistant, read-out: MIC E. faecalis Vancomycin-resistant
[33] = erm B + mef A genotype, read-out: MIC S. pneumoniae erm B + mef A genotype
[34] = erythro > 4, azithro 1, read-out: MIC H. influenzae erythro > 4, azithro 1
[35] = ATCC29213, ATCC29213, read-out: MIC S. aureus ATCC29213
[36] = TEM-10, read-out: MIC K. pneumoniae TEM-10
[37] = ATCC29212, ATCC29212, read-out: MIC E. faecalis ATCC29212

CC[C@H]1OC(=O)[C@H](C)C(=O)[C@H](C)[C@@H](O[C@@H]2OC(Cn3cc(-c4ccccn4)nn3)CC(N(C)C)C2O)[C@](C)(OC)C[C@@H](C)CN[C@H](C)[C@H]2N(CCCCn3cc(-c4cccc(N)c4)nn3)C(=O)O[C@]12C (stereo partly drawn) [FSM-22111]
MIC [1, 10]: 16 µg/mL (≈ 16.5 µM) | MIC [1, 11]: > 32 µg/mL | MIC [1, 12]: 32 µg/mL (≈ 32.9 µM) | MIC [1, 13]: 16 µg/mL (≈ 16.5 µM) | MIC [2, 14]: ≤ 0.0312 µg/mL | MIC [2, 15]: ≤ 0.0312 µg/mL | MIC S. pneumoniae erm B + mef A genotype ([2]; erm B + mef A genotype): 2 µg/mL | MIC [3, 16]: 2 µg/mL (≈ 2.06 µM) | MIC H. influenzae erythro > 4, azithro 1 ([3]; erythro > 4, azithro 1): 1 µg/mL (≈ 1.03 µM) | MIC S. aureus ATCC29213 [4]: 2 µg/mL (≈ 2.06 µM) | MIC [4, 17]: > 32 µg/mL | MIC [4, 18]: > 32 µg/mL | MIC [4, 19]: > 32 µg/mL | MIC [4, 20]: > 32 µg/mL | MIC [5, 21]: > 32 µg/mL | MIC [5, 22]: > 32 µg/mL | MIC [6, 23]: ≤ 0.0312 µg/mL | MIC [6, 24]: 1 µg/mL (≈ 1.03 µM) | MIC [7, 25]: 16 µg/mL (≈ 16.5 µM) | MIC [7, 26]: > 32 µg/mL | MIC [7, 27]: 16 µg/mL (≈ 16.5 µM) | MIC [7, 28]: 16 µg/mL (≈ 16.5 µM) | MIC [8, 29]: 8 µg/mL (≈ 8.23 µM) | MIC [8, 30]: 32 µg/mL (≈ 32.9 µM) | MIC [8, 31]: > 32 µg/mL | MIC K. pneumoniae TEM-10 ([8]; TEM-10): 8 µg/mL (≈ 8.23 µM) | MIC E. faecalis ATCC29212 [9]: 0.25 µg/mL (≈ 0.257 µM) | MIC [9, 32]: > 32 µg/mL

CC[C@H]1OC(=O)[C@H](C)C(=O)[C@H](C)[C@@H](O[C@@H]2OC(Cn3cc(-c4cccc(N)n4)nn3)CC(N(C)C)C2O)[C@](C)(OC)C[C@@H](C)CN[C@H](C)[C@H]2N(CCCCn3cc(-c4cccc(N)c4)nn3)C(=O)O[C@]12C (stereo partly drawn) [FSM-22124]
MIC [1, 10]: 16 µg/mL (≈ 16.2 µM) | MIC [1, 11]: > 32 µg/mL | MIC [1, 12]: > 32 µg/mL | MIC [1, 13]: 16 µg/mL (≈ 16.2 µM) | MIC [2, 14]: ≤ 0.0312 µg/mL | MIC [2, 33]: 0.5 µg/mL | MIC [2, 15]: ≤ 0.0312 µg/mL | MIC [3, 16]: 2 µg/mL (≈ 2.03 µM) | MIC [3, 34]: 1 µg/mL (≈ 1.01 µM) | MIC [4, 35]: 4 µg/mL (≈ 4.05 µM) | MIC [4, 17]: > 32 µg/mL | MIC [4, 18]: > 32 µg/mL | MIC [4, 19]: > 32 µg/mL | MIC [4, 20]: > 32 µg/mL | MIC [5, 21]: > 32 µg/mL | MIC [5, 22]: > 32 µg/mL | MIC [6, 23]: ≤ 0.0312 µg/mL | MIC [6, 24]: 2 µg/mL (≈ 2.03 µM) | MIC [7, 25]: 16 µg/mL (≈ 16.2 µM) | MIC [7, 26]: > 32 µg/mL | MIC [7, 27]: 16 µg/mL (≈ 16.2 µM) | MIC [7, 28]: 16 µg/mL (≈ 16.2 µM) | MIC [8, 29]: 4 µg/mL (≈ 4.05 µM) | MIC [8, 30]: 32 µg/mL (≈ 32.4 µM) | MIC [8, 31]: > 32 µg/mL | MIC [8, 36]: 8 µg/mL (≈ 8.1 µM) | MIC [9, 37]: 0.25 µg/mL (≈ 0.253 µM) | MIC [9, 32]: > 32 µg/mL

CC[C@H]1OC(=O)[C@H](C)C(=O)[C@H](C)[C@@H](O[C@@H]2OC(Cn3cc(-c4cnc(N)s4)nn3)CC(N(C)C)C2O)[C@](C)(OC)C[C@@H](C)CN[C@H](C)[C@H]2N(CCCCn3cc(-c4cccc(N)c4)nn3)C(=O)O[C@]12C (stereo partly drawn) [FSM-22125]
MIC [1, 10]: 32 µg/mL (≈ 32.2 µM) | MIC [1, 11]: > 32 µg/mL | MIC [1, 12]: > 32 µg/mL | MIC [1, 13]: 16 µg/mL (≈ 16.1 µM) | MIC [2, 14]: ≤ 0.0312 µg/mL | MIC [2, 33]: > 32 µg/mL | MIC [2, 15]: ≤ 0.0312 µg/mL | MIC ([2]; read-out: MIC S. pneumoniae mef A genotype, mef A genotype): 4 µg/mL (≈ 4.03 µM) | MIC ([2]; read-out: MIC S. pneumoniae mef A genotype, mef A genotype, first of two such columns (c3)): 0.5 µg/mL (≈ 0.503 µM) | MIC [3, 16]: 4 µg/mL (≈ 4.03 µM) | MIC [3, 34]: 2 µg/mL (≈ 2.01 µM) | MIC [4, 35]: 4 µg/mL (≈ 4.03 µM) | MIC [4, 17]: > 32 µg/mL | MIC [4, 18]: > 32 µg/mL | MIC [4, 19]: > 32 µg/mL | MIC [4, 20]: > 32 µg/mL | MIC [5, 21]: > 32 µg/mL | MIC [5, 22]: > 32 µg/mL | MIC [6, 23]: ≤ 0.0312 µg/mL | MIC [6, 24]: 4 µg/mL (≈ 4.03 µM) | MIC [7, 25]: > 32 µg/mL | MIC [7, 26]: > 32 µg/mL | MIC [7, 27]: 32 µg/mL (≈ 32.2 µM) | MIC [7, 28]: > 32 µg/mL | MIC [8, 29]: 32 µg/mL (≈ 32.2 µM) | MIC [8, 30]: > 32 µg/mL | MIC [8, 31]: > 32 µg/mL | MIC [8, 36]: 32 µg/mL (≈ 32.2 µM) | MIC [9, 37]: 0.5 µg/mL (≈ 0.503 µM) | MIC [9, 32]: > 32 µg/mL

CC[C@H]1OC(=O)[C@H](C)C(=O)[C@H](C)[C@@H](O[C@@H]2OC(Cn3cc(-c4ccccn4)nn3)CC(N(C)C)C2O)[C@](C)(OC)C[C@@H](C)CN[C@H](C)[C@H]2N(CCCCn3cc(-c4cccc(N)c4)nn3)C(=O)O[C@]12C (stereo partly drawn) [FSM-22366]
MIC E. coli ATCC25922 ([1]; ATCC25922): >32 µg/mL | MIC E. coli CTX-M-14 ([1]; CTX-M-14): >32 µg/mL | MIC E. coli NDM-1 ([1]; NDM-1): >32 µg/mL | MIC E. coli TEM-1 ([1]; TEM-1): 16 µg/mL (≈ 16.5 µM) | MIC S. pneumoniae ATCC49619 ([2]; ATCC49619): <0.03125 µg/mL | MIC S. pneumoniae erm B + mef A genotype ([2]; erm B + mef A genotype): >32 µg/mL | MIC S. pneumoniae erm B + tet(M, O) genotype ([2]; erm B + tet(M, O) genotype): <0.03125 µg/mL | MIC H. influenzae ATCC49247 ([3]; ATCC49247): 4 µg/mL (≈ 4.11 µM) | MIC H. influenzae erythro > 4, azithro 1 ([3]; erythro > 4, azithro 1): 4 µg/mL (≈ 4.11 µM) | MIC S. aureus ATCC29213 [4]: 32 µg/mL (≈ 32.9 µM) | MIC S. aureus MRSA: USA100 ([4]; MRSA: USA100): >32 µg/mL | MIC S. aureus MRSA: USA300 ([4]; MRSA: USA300): >32 µg/mL | MIC S. aureus USA600, GISA ([4]; USA600, GISA): >32 µg/mL | MIC S. aureus erm A genotype ([4]; erm A genotype): >32 µg/mL | MIC P. aeruginosa ATCC27853 ([5]; ATCC27853): >32 µg/mL | MIC P. aeruginosa HPA101-1477 ([5]; HPA101-1477): >32 µg/mL | MIC S. pyogenes ATCC19615 ([6]; ATCC19615): <0.03125 µg/mL | MIC S. pyogenes macrolide-resistant ([6]; macrolide-resistant): 1 µg/mL (≈ 1.03 µM) | MIC A. baumannii ATCC19606 ([7]; ATCC19606): >32 µg/mL | MIC A. baumannii IMP-4 ([7]; IMP-4): >32 µg/mL | MIC A. baumannii chromosomal class C ([7]; chromosomal class C): >32 µg/mL | MIC A. baumannii imipenem-resistant ([7]; imipenem-resistant): 32 µg/mL (≈ 32.9 µM) | MIC K. pneumoniae ATCC10031 ([8]; ATCC10031): 16 µg/mL (≈ 16.5 µM) | MIC K. pneumoniae KPC-2 ([8]; KPC-2): >32 µg/mL | MIC K. pneumoniae SHV-12 ([8]; SHV-12): >32 µg/mL | MIC K. pneumoniae TEM-10 ([8]; TEM-10): 32 µg/mL (≈ 32.9 µM) | MIC E. faecalis ATCC29212 [9]: 2 µg/mL (≈ 2.06 µM) | MIC E. faecalis Vancomycin-resistant ([9]; Vancomycin-resistant): >32 µg/mL
